This note sets out measurements from ChEMBL document CHEMBL1949568, “Discovery of diphenyl lactam derivatives as N-type calcium channel blockers” (Bioorg Med Chem Lett, 2012).

Converted amounts (≈) assume the structure as drawn. The source made the active and inactive calls. Bounds are passed on as bounds.

Series [1] is described as follows: Oral bioavailability in rat at 30 umol/kg. It is filed as ADME, organism-based. The following applies: in vivo.
A short description of series [2]: Metabolic stability in human liver microsomes assessed as compound remaining after 30 mins. It is filed as ADME, Microsome. The following applies: read-out: Stability. (In general: Liver microsomes are vesicles of endoplasmic reticulum, rich in cytochrome P450 enzymes.)
A short description of series [3]: Volume of distribution at steady state in rat at 5 umol/kg, iv and 30 umol/kg, po. It is filed as ADME, organism-based. The following applies: in vivo, read-out: Vdss.
Series [4] can be described thus: Plasma clearance in rat at 5 umol/kg, iv and 30 umol/kg, po. It is filed as ADME, organism-based.
Series [5] is described as follows: Metabolic stability in rat liver microsomes assessed as compound remaining after 30 mins. It is filed as ADME, Microsome. The following applies: read-out: Stability.
Series [6] can be described thus: Half life in rat at 5 umol/kg, iv and 30 umol/kg, po. It is filed as ADME, organism-based. The note with it: in vivo.
The nature of series [7]: AUC in rat at 30 umol/kg, po. It is filed as ADME, organism-based. The note with it: plasma.
Series [8] is described as follows: Aqueous solubility of the compound at pH 7. It is filed as physicochemical.
Series [9] in a line: Inhibition of N-type calcium channel by FLIPR assay.
Series [10] relates to Rattus norvegicus. Put plainly: Antinociceptive activity in rat capsaicin model of secondary mechanical hyperalgesia assessed as inhibition of tactile allodynia at 30 mg/kg, po. Further details: dose 30 mg/kg. It is filed as functional, organism-based.
A short description of series [11]: Oral bioavailability in rat at 3 umol/kg. It is filed as ADME, organism-based. The note with it: in vivo.
A short description of series [12]: AUC in rat at 3 umol/kg, po. It is filed as ADME, organism-based. The note with it: plasma.
In series [13] the test system is Rattus norvegicus. Briefly: Volume of distribution at steady state in rat at 3 umol/kg, po. It is filed as ADME, organism-based. The following applies: in vivo.
The nature of series [14]: Plasma clearance in rat at 3 umol/kg, po. It is filed as ADME, organism-based.
The nature of series [15]: Half life in rat at 3 umol/kg, po. It is filed as ADME, organism-based. The following applies: in vivo.
The subject of series [16] is Rattus norvegicus. Put plainly: Antinociceptive activity in rat capsaicin model of secondary mechanical hyperalgesia assessed as inhibition of tactile allodynia at 150 mg/kg, po. It is filed as functional, organism-based. Further details: dose 150 mg/kg.

`O=C(CN1CCCC(c2ccccc2)(c2ccccc2)C1=O)N1CCN(Cc2cccc(C(F)(F)F)c2)CC1` returned a bioavailability in series [1] of 15.6%. In series [2], the remaining at 0.5 h was found to be 0.1%. The Vd in [3] came out at 5.9 L/kg. For the same compound, the clearance in series [4] was 41.7 mL/min/kg. Further, in series [5], the remaining at 0.5 h turned out to be 1.2%. Moreover, in series [6], the half-life is 2.7 h. This compound also returned an AUC in series [7] of 1000 ng·h/mL. Moreover, the solubility in [8] was less than 25 µM. For the same compound, in [9], the IC50 came out at 930 nM and the pIC50 worked out at 6.03.
Compound `O=C(CN1CCC(c2ccccc2)(c2ccccc2)C1=O)N1CCN(C(c2ccccc2)c2ccc(Cl)cc2)CC1` (stereo not drawn) returned a solubility in series [8] of less than 25 µM. In [9], the IC50 came out at 1010 nM and the pIC50 was determined as 5.99.
Compound `O=C(CN1CCC(c2ccc(F)cc2)(c2ccc(F)cc2)C1=O)N1CCN(Cc2cccc(C(F)(F)F)c2)CC1` displayed a solubility in series [8] of less than 25 µM. For the same compound, in series [9], the IC50 was 1010 nM and the pIC50 came to 6.
Taken in the same sequence, the figures for `O=C(CN1CCCC(c2ccccc2)(c2ccccc2)C1=O)N1CCN(Cc2cccc(Cl)c2)CC1` were less than 25 µM, 1320 nM and 5.88.
Taken in the same sequence, the figures for `O=C(CN1CCCC(c2ccccc2)(c2ccccc2)C1=O)N1CCc2ccc(C(F)(F)F)cc2C1` were less than 25 µM, 4440 nM and 5.35.
On to `O=C(CN1CCC(c2ccc(F)cc2)(c2ccc(F)cc2)C1=O)N1CCN(C(c2ccccc2)c2ccccc2)CC1`, for which the inhibition result in series [10] was “Active”. Also, the remaining at 0.5 h in series [2] worked out at 2.5%. The remaining at 0.5 h in series [5] came to 2%. The compound further came in with a solubility in series [8] of less than 25 µM. Further, the bioavailability in series [11] came out at 20.3%. For the same compound, the AUC in series [12] came out at 160 ng·h/mL. For the same compound, in series [9], the IC50 came to 830 nM and the pIC50 was found to be 6.08. In series [13], this compound yielded a Vdss of 13.2 L/kg. This compound showed a CL/F in series [14] of 36.7 mL/min/kg. The compound further showed a half-life in [15] of 7.2 h.
In the case of `O=C(CN1CCC(c2ccccc2)(c2ccccc2)C1=O)N1CCN(C(c2ccccc2)c2ccccc2)CC1`, the inhibition entry in [10] was “Active”. For the same compound, the remaining at 0.5 h in series [5] came to 0.4%. The same compound showed a solubility in [8] of less than 25 µM. Moreover, in series [11], the bioavailability worked out at 16.4%. The compound further returned an AUC in [12] of 159 ng·h/mL. Moreover, in series [9], the IC50 is 720 nM and the pIC50 is on record as 6.14. This compound gave a Vdss in series [13] of 6.9 L/kg. In addition, the CL/F in [14] was 26.7 mL/min/kg. The compound further showed a half-life in [15] of 5.6 h.
The compound `O=C(CN1CCC(c2ccccc2)(c2ccccc2)C1=O)N1CCN(Cc2ccc(F)cc2)CC1` showed a solubility in series [8] of 57 µM (≈ 26.9 µg/mL). In addition, in [9], the IC50 came to 2220 nM and the pIC50 is 5.65.
Turning to `O=C(CN1CCCC(c2ccccc2)(c2ccccc2)C1=O)N1CCC(NC(c2ccccc2)c2ccccc2)CC1`, in series [2], the remaining at 0.5 h is less than 0.1%. For the same compound, the remaining at 0.5 h in [5] is less than 0.1%. The compound also returned a solubility in series [8] of less than 25 µM. Also, in [9], the IC50 turned out to be 810 nM and the pIC50 was determined as 6.09.
In series [8], `O=C(CN1CCCC(c2ccc(F)cc2)(c2ccc(F)cc2)C1=O)N1CCN(C(c2ccccc2)c2ccccc2)CC1` returned a solubility of less than 25 µM. Besides, in series [9], the IC50 turned out to be 4610 nM and the pIC50 is on record as 5.34.
Take `O=C(CN1CCCC(c2ccccc2)(c2ccccc2)C1=O)N1CCN(Cc2ccc(C(F)(F)F)cc2)CC1`: the solubility in series [8] is less than 25 µM. In [9], the IC50 came out at 1380 nM and the pIC50 worked out at 5.86.
`O=C(CN1CCC(c2ccccc2)(c2ccccc2)C1=O)N1CCN(C(c2ccccc2)c2ccc(F)cc2)CC1` (stereo not drawn) gave a solubility in series [8] of less than 25 µM. In series [9], the concentration for half-maximal inhibition (IC50) was 450 nM and the pIC50 is given as 6.35.
In series [8], `O=C(CN1CCC(c2ccccc2)(c2ccccc2)C1=O)N1CCN(C(c2ccc(F)cc2)c2ccc(F)cc2)CC1` registered a solubility of less than 25 µM. Also, in series [9], the IC50 came out at 430 nM and the pIC50 is recorded as 6.37.
In [8], `O=C(CN1CCCC(c2ccccc2)(c2ccccc2)C1=O)N1CCC(C(O)(c2ccccc2)c2ccccc2)CC1` registered a solubility of less than 25 µM. In [9], the IC50 came out at 1740 nM and the pIC50 is 5.76.
Taken in the same sequence, the figures for `O=C(CN1CCC(c2ccccc2)(c2ccccc2)C1=O)N1CCN(Cc2c(Cl)cccc2Cl)CC1` were less than 25 µM, 900 nM and 6.04.
With `NCC1(CC(=O)O)CCCCC1`, the inhibition entry in series [16] is “Active”.
Consider `O=C(CN1CCCC(c2ccccc2)(c2ccccc2)C1=O)N1CCCC(c2ccccc2)(c2ccccc2)C1`, for which the solubility in [8] was less than 25 µM. In addition, in series [9], the IC50 was 810 nM and the pIC50 turned out to be 6.09.
On the same counts, the results for `O=C(CN1CCCC(c2ccccc2)(c2ccccc2)C1=O)N1CCN(C(c2ccc(F)cc2)c2ccc(F)cc2)CC1` are less than 25 µM, 2360 nM and 5.63.
Taken in the same sequence, the figures for `O=C(CN1CCCC(c2ccccc2)(c2ccccc2)C1=O)N1CCC(C(c2ccccc2)c2ccccc2)CC1` were less than 25 µM, 2610 nM and 5.58.
Taken in the same sequence, the figures for `O=C(CN1CCCC(c2ccccc2)(c2ccccc2)C1=O)N1CC(c2ccc(C(F)(F)F)cc2)C1` were less than 25 µM, 3070 nM and 5.51.
For `O=C(CN1CCCC(c2ccccc2)(c2ccccc2)C1=O)N1CCN(C(c2ccccc2)c2ccccc2)CC1`, the inhibition entry in series [10] is “Active”. Moreover, the remaining at 0.5 h in series [2] was 0.1%. Besides, in series [5], the remaining at 0.5 h came to 0.1%. In addition, the solubility in series [8] is less than 25 µM. The compound further had a bioavailability in [11] of 16.6%. Besides, the AUC in series [12] worked out at 186 ng·h/mL. Further, in series [9], the IC50 was determined as 1380 nM and the pIC50 turned out to be 5.86. For the same compound, the Vdss in series [13] came out at 5.8 L/kg. Besides, in series [14], the CL/F is 25 mL/min/kg. The half-life in series [15] was 5.2 h.
`O=C(CN1CCCC(c2ccccc2)(c2ccccc2)C1=O)N1CCC(c2ccccc2)(c2ccccc2)CC1` registered a bioavailability in series [1] of 50%. Moreover, the Vd in series [3] was 11.4 L/kg. This compound gave a clearance in series [4] of 45 mL/min/kg. Moreover, the half-life in series [6] is 6.3 h. Further, the AUC in series [7] is 2990 ng·h/mL. In series [8], this compound registered a solubility of less than 25 µM. Moreover, in series [9], the IC50 is 660 nM and the pIC50 is recorded as 6.18.
`O=C(CN1CCCC(c2ccccc2)(c2ccccc2)C1=O)N1CCN(Cc2ccc(Cl)cc2Cl)CC1`: the solubility in series [8] is less than 25 µM. In series [9], the IC50 came out at 1800 nM and the pIC50 was determined as 5.75.
On the same counts, the results for `O=C(CN1CCCC(c2ccccc2)(c2ccccc2)C1=O)N1CCC(c2ccccc2)(c2ccccc2)C1` are less than 25 µM, 2430 nM and 5.61.
For `O=C(CN1CCC(c2ccccc2)(c2ccccc2)C1=O)N1CCN(Cc2cccc(C(F)(F)F)c2)CC1`, the remaining at 0.5 h in series [2] was found to be 0.3%. Moreover, the remaining at 0.5 h in [5] worked out at 0.1%. This compound gave a solubility in series [8] of less than 25 µM. In addition, in series [9], the IC50 worked out at 1030 nM and the pIC50 was found to be 5.99.
As for `O=C(CN1CCC(c2ccccc2)(c2ccccc2)C1=O)N1CCN(Cc2ccc(Cl)cc2Cl)CC1`, in [8], the solubility was less than 25 µM. In [9], the IC50 came out at 520 nM and the pIC50 was found to be 6.28.
On to `O=C(CN1CCCC(c2ccc(F)cc2)(c2ccc(F)cc2)C1=O)N1CCN(Cc2cccc(C(F)(F)F)c2)CC1`, for which the solubility in series [8] was less than 25 µM. Also, in series [9], the IC50 is 1360 nM and the pIC50 came to 5.87.

The term bioavailability denotes the share of a dose that reaches the circulation, judged against a reference dose that is usually intravenous. A high value points to good availability. For orientation: half-life means the time needed for the level to fall by half in the phase considered. A high value points to slow decline. The AUC is the area under the concentration-time curve, a measure of exposure. As usually defined, the solubility is how much of the substance goes into solution per volume. Low values mean little dissolved substance, high ones much dissolved substance. The term IC50 denotes the concentration needed to halve the response being measured. What is called pIC50 is the negative decadic logarithm of the IC50, by convention in mol/L. A word on the CL/F: it is clearance divided by bioavailability, as obtained after extravascular dosing.
